According to ChEMBL document CHEMBL1201862, “PubChem BioAssay data set” (2004):
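48-hour exposure; five concentrations; linearly interpolated endpoints. At the GI50, growth is halved.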 Activity calls are given as the source filed them. Rule as the data show it: active = GI50 up to about 1.1 µM and inactive = higher.

Tests used:
Experiment in all cases: NCI tumour cell line growth inhibition, 48 h
OVCAR-3 = tested on: OVCAR-3
OVCAR-4 = tested on: OVCAR-4
DU-145 = tested on: DU-145
PC-3 = tested on: PC-3
KM12 = tested on: KM12
U-251 = tested on: U-251
A549 = tested on: A549
HT-29 = tested on: HT-29
COLO 205 = tested on: COLO 205
Malme-3M = tested on: Malme-3M
MCF7 = tested on: MCF7
CAKI-1 = tested on: CAKI-1
SW-620 = tested on: SW-620
MDA-MB-231 = tested on: MDA-MB-231
UACC-62 = tested on: UACC-62
SK-MEL-2 = tested on: SK-MEL-2
HCT-116 = tested on: HCT-116
MDA-MB-435 = tested on: MDA-MB-435
SF-539 = tested on: SF-539

Measured: GI50

Nc1ccc(I)cn1
inactive: OVCAR-3 > 100 µM | OVCAR-4 > 100 µM | DU-145 > 100 µM | PC-3 > 100 µM | KM12 > 100 µM | U-251 > 100 µM | A549 > 100 µM | HT-29 > 100 µM | COLO 205 > 100 µM | Malme-3M > 100 µM | MCF7 > 100 µM | CAKI-1 > 100 µM | SW-620 > 100 µM | MDA-MB-231 > 100 µM | UACC-62 > 100 µM | SK-MEL-2 > 100 µM | HCT-116 > 100 µM | MDA-MB-435 > 100 µM

Cc1nnc2sc(Cc3cnc(N)s3)nn12
inactive: OVCAR-4 > 100 µM | DU-145 > 100 µM | PC-3 > 100 µM | KM12 > 100 µM | U-251 > 100 µM | A549 > 100 µM | HT-29 > 100 µM | SF-539 > 100 µM | COLO 205 > 100 µM | Malme-3M > 100 µM | MCF7 > 100 µM | SW-620 > 100 µM | MDA-MB-231 > 100 µM | UACC-62 > 100 µM | SK-MEL-2 > 100 µM | HCT-116 > 100 µM

O=C(CC(=O)N1N=C(N2c3ccccc3Sc3ccccc32)CC1c1ccccc1)Nc1ccccc1Cl (stereo not given)
inactive: OVCAR-3 > 100 µM | OVCAR-4 > 100 µM | DU-145 > 100 µM | PC-3 > 100 µM | KM12 > 100 µM | U-251 > 100 µM | A549 > 100 µM | HT-29 > 100 µM | SF-539 > 100 µM | COLO 205 > 100 µM | CAKI-1 > 100 µM | SW-620 > 100 µM | MDA-MB-231 > 100 µM | UACC-62 > 100 µM | SK-MEL-2 > 100 µM | HCT-116 > 100 µM | MDA-MB-435 > 100 µM

O=[PH](O)c1ccsc1
inactive: U-251 > 100 µM | A549 > 100 µM | HT-29 55 µM | SF-539 > 100 µM | COLO 205 > 100 µM | CAKI-1 52.1 µM | SW-620 > 100 µM | UACC-62 > 100 µM | HCT-116 > 100 µM

C=CC(=O)Nc1ccc(NC(=O)C=C)c2c1C(=O)c1ccccc1C2=O
inactive: OVCAR-3 35.6 µM | PC-3 40.8 µM | KM12 12 µM | U-251 20.9 µM | A549 > 100 µM | HT-29 45.5 µM | SF-539 24.8 µM | COLO 205 > 100 µM | Malme-3M > 100 µM | MCF7 21 µM | SW-620 26.4 µM | MDA-MB-231 97.7 µM | UACC-62 21.4 µM | SK-MEL-2 69.3 µM | HCT-116 62.8 µM | MDA-MB-435 > 10 µM

CC(=O)OCC(OC(C)=O)C(OC(C)=O)C(OC(C)=O)C(C=NN(C(C)=O)S(=O)(=O)c1ccc(/C=C2\NC(=O)NC2=O)cc1)OC(C)=O (stereo not given)
inactive: OVCAR-3 > 100 µM | OVCAR-4 > 100 µM | DU-145 > 100 µM | PC-3 > 100 µM | KM12 > 100 µM | U-251 > 100 µM | A549 > 100 µM | HT-29 > 100 µM | COLO 205 > 100 µM | Malme-3M > 100 µM | MCF7 > 100 µM | CAKI-1 > 100 µM | SW-620 > 100 µM | MDA-MB-231 > 100 µM | UACC-62 > 100 µM | SK-MEL-2 > 100 µM | HCT-116 > 100 µM | MDA-MB-435 > 100 µM

COC(=O)/C(=N\NC(=S)NN)C(C(=O)OC)C(=O)C(=O)Nc1cccc(C(F)(F)F)c1 (stereo not given)
inactive: OVCAR-3 > 100 µM | OVCAR-4 > 100 µM | PC-3 > 100 µM | KM12 > 100 µM | U-251 > 100 µM | A549 > 100 µM | HT-29 > 100 µM | SF-539 > 100 µM | Malme-3M > 100 µM | MCF7 > 100 µM | CAKI-1 > 100 µM | SW-620 > 100 µM | MDA-MB-231 > 100 µM | UACC-62 > 100 µM | SK-MEL-2 > 100 µM | HCT-116 > 100 µM | MDA-MB-435 > 100 µM

CC12CCC(=O)N1c1cncnc1N2 (stereo not given)
inactive: OVCAR-3 > 10 µM | OVCAR-4 > 10 µM | DU-145 > 10 µM | PC-3 > 10 µM | KM12 > 10 µM | U-251 > 10 µM | A549 > 10 µM | HT-29 > 10 µM | SF-539 > 10 µM | Malme-3M > 10 µM | MCF7 > 10 µM | SW-620 > 10 µM | UACC-62 > 10 µM | SK-MEL-2 > 10 µM | HCT-116 > 10 µM | MDA-MB-435 > 10 µM

CC(C)=C[C@H]1CCC2(OCCO2)[C@]1(C)COCc1ccccc1
inactive: OVCAR-3 22 µM | OVCAR-4 33.8 µM | PC-3 39.9 µM | KM12 33.7 µM | A549 33.3 µM | SF-539 21.7 µM | COLO 205 17.6 µM | Malme-3M 23.9 µM | MCF7 41.3 µM | CAKI-1 32 µM | SW-620 29.1 µM | MDA-MB-231 19.7 µM | SK-MEL-2 25.5 µM | HCT-116 29.9 µM | MDA-MB-435 26.4 µM

S=C1CSc2c(cnc3ccccc23)N1
inactive: OVCAR-3 > 100 µM | OVCAR-4 > 100 µM | DU-145 > 100 µM | PC-3 68.4 µM | KM12 > 100 µM | U-251 > 100 µM | A549 > 100 µM | HT-29 > 100 µM | COLO 205 > 100 µM | Malme-3M > 100 µM | MCF7 > 100 µM | CAKI-1 78.7 µM | MDA-MB-231 > 100 µM | UACC-62 > 100 µM | HCT-116 > 100 µM | MDA-MB-435 > 100 µM

C=CC1(c2ccc(Cl)c(Cl)c2)OCCO1
inactive: OVCAR-3 > 100 µM | OVCAR-4 > 100 µM | DU-145 > 100 µM | PC-3 > 100 µM | KM12 > 100 µM | U-251 > 100 µM | A549 > 100 µM | HT-29 88.5 µM | COLO 205 > 100 µM | Malme-3M > 100 µM | MCF7 > 100 µM | SW-620 > 100 µM | MDA-MB-231 1.83 µM | UACC-62 > 100 µM | SK-MEL-2 79.4 µM | HCT-116 97.7 µM | MDA-MB-435 > 100 µM

O=[N+]([O-])c1ccc2c(c1)nc(Cc1ccccc1)n2C[C@@H]1CCCN2CCCCC12 (stereo not given in full)
inactive: OVCAR-3 41.5 µM | OVCAR-4 27.4 µM | DU-145 60.5 µM | PC-3 37.3 µM | KM12 21.3 µM | U-251 44.7 µM | A549 51.2 µM | HT-29 17.5 µM | COLO 205 17.3 µM | Malme-3M 14.2 µM | MCF7 41.1 µM | CAKI-1 28.3 µM | SW-620 40.4 µM | MDA-MB-231 31.3 µM | UACC-62 19.5 µM | SK-MEL-2 20.9 µM | HCT-116 33.7 µM | MDA-MB-435 17.2 µM

COc1ccc(N2C(=O)c3cc([N+](=O)[O-])cnc3S2(=O)=O)cc1
inactive: OVCAR-3 > 100 µM | OVCAR-4 > 100 µM | DU-145 > 100 µM | PC-3 > 100 µM | KM12 > 100 µM | U-251 > 100 µM | A549 > 100 µM | HT-29 > 100 µM | COLO 205 > 100 µM | Malme-3M > 100 µM | SW-620 > 100 µM | MDA-MB-231 > 100 µM | UACC-62 > 100 µM | SK-MEL-2 > 100 µM | HCT-116 > 100 µM | MDA-MB-435 > 100 µM

[N-]=[N+]=Nc1cc(=O)[nH]c2ccccc12
inactive: OVCAR-3 65.2 µM | OVCAR-4 > 100 µM | PC-3 39.4 µM | KM12 > 100 µM | U-251 > 100 µM | A549 > 100 µM | HT-29 > 100 µM | SF-539 > 100 µM | COLO 205 > 100 µM | Malme-3M 94.6 µM | MCF7 52 µM | CAKI-1 > 100 µM | SW-620 > 100 µM | MDA-MB-231 > 100 µM | UACC-62 44.2 µM | SK-MEL-2 > 100 µM | HCT-116 > 100 µM | MDA-MB-435 > 100 µM

Cc1cc(S(=O)(=O)NC2=Nc3ccccc3C(c3ccccc3)N2)c(S)cc1Cl (stereo not given)
inactive: OVCAR-3 > 100 µM | OVCAR-4 13.6 µM | DU-145 > 100 µM | PC-3 16.4 µM | KM12 58.6 µM | U-251 37.7 µM | A549 18.2 µM | HT-29 > 100 µM | SF-539 > 100 µM | COLO 205 > 100 µM | Malme-3M > 100 µM | MCF7 > 100 µM | CAKI-1 45.8 µM | SW-620 > 100 µM | MDA-MB-231 95.3 µM | UACC-62 > 100 µM | HCT-116 7.13 µM | MDA-MB-435 31.7 µM

CCOC(=O)c1c[nH]c2c(Sc3ccccc3)nccc2c1=O
inactive: OVCAR-3 > 100 µM | OVCAR-4 > 100 µM | DU-145 90.8 µM | PC-3 > 100 µM | KM12 44.6 µM | U-251 44.4 µM | A549 87.5 µM | HT-29 97.5 µM | SF-539 77.8 µM | COLO 205 > 100 µM | MCF7 71.4 µM | CAKI-1 41.3 µM | SW-620 > 100 µM | MDA-MB-231 53.1 µM | UACC-62 36.7 µM | SK-MEL-2 > 100 µM | HCT-116 73.6 µM | MDA-MB-435 39.6 µM

Cc1cc(O)c2c(c1O)C(=O)c1cccc(O)c1C2=O [ISLANDICIN]
inactive: OVCAR-3 > 100 µM | OVCAR-4 > 100 µM | DU-145 > 100 µM | PC-3 > 100 µM | KM12 > 100 µM | U-251 > 100 µM | A549 > 100 µM | HT-29 > 100 µM | SF-539 > 100 µM | MCF7 > 100 µM | CAKI-1 > 100 µM | SW-620 > 100 µM | MDA-MB-231 > 100 µM | UACC-62 > 100 µM | SK-MEL-2 > 100 µM | HCT-116 > 100 µM | MDA-MB-435 > 100 µM
